Measurements published in patent US11680281B2, “Biosynthetic production of steviol glycosides and processes therefore” (Conagen Inc., priority 2016, dated 2023).

Legend:
[1] = Sensory evaluation (taste test) of rebaudiosides against sucrose controls; type: in vivo; conditions: rebaudioside 300 ppm in bottled water, room temperature; vs 1.0%, 3.0%, 6.0% sucrose (w/v); panel of 13 volunteer human subjects
Experimental: A sensory evaluation of rebaudiosides was performed using sucrose as a control. The sucrose sample was purchased from Sigma-Aldrich and was used to prepared control samples at three different concentrations of 1.0%, 3.0%, and 6.0% sucrose in bottled water (w/v) at room temperature. The rebaudioside was prepared at 300 ppm for sensory evaluation by adding a corresponding mass into 1000 mL of bottled water. The mixture was stirred at room temperature and the steviol glycoside sample was then evaluated against several control sucrose samples at 1.0%, 3.0%, and 6.0% by a panel of 13 volunteer human subjects.

[2] = relative to table sugar (sucrose); cited from earlier work
[3] = In vitro conversion of Reb D4 to Reb M by recombinant UGT polypeptides, HPLC analysis; type: biochemical; conditions: 10 μg polypeptide, 1 mg/ml Reb D4, 1 mM UDP-glucose, 30° C., 30 min and 1 hr; compared with UGT76G1
Experimental: In this Example, to confirm the conversion of Reb D4 to rebaudioside M in vitro, the UGT76G1, CP1 and enzyme mutants were assayed using Reb D4 as the steviol glycoside substrate. The recombinant polypeptide (10 μg) was tested in a 200 μL in vitro reaction system. The reaction system contained 50 mM potassium phosphate buffer, pH 7.2, 3 mM MgCl2, 1 mg/ml steviol glycoside substrate, and 1 mM UDP-glucose. The reaction was performed at 30° C. and terminated by adding 200 μL of 1-butanol. The samples were extracted three times with 200 μL of 1-butanol. The pooled fraction was dried and dissolved in 70 μL of 80% methanol for high-performance liquid chromatography (HPLC) analysis. Rebaudioside D4 were used as substrate. HPLC analysis was performed using a Dionex UPLC ultimate 3000 system (Sunnyvale, Calif.), including a quaternary pump, a temperature controlled column compartment, an auto sampler and a UV absorbance detector. Synergi Hydro-RP column with guard column was used for the characterization of steviol glycosides. Acetonitrile in water was used for elution in HPLC analysis. The detection wavelength was 210 nm.

| Molecule | Fold increase in sweetness relative to sucrose [1] [fold] | other results |
| --- | --- | --- |
| C=C1C[C@@]23CC[C@H]4[C@@](C)(CCC[C@@]4(C)C(=O)OC4OC(CO)C(O)C(OC5OC(CO)C(O)C(O)C5O)C4OC4OC(CO)C(O)C(O)C4O)[C@@H]2CC[C@]1(OC1OC(CO)C(O)C(O)C1OC1OC(CO)C(O)C(O)C1O)C3 (stereo partly drawn) [Reb D4, 13-[(2-O-β-D-glucopyranosyl-β-D-glucopyranosyl)oxy] ent-kaur-16-en-19-oic acid-[(2-O-β-D-glucopyranosyl-3-O-β-D-glucopyranosyl-β-D-glucopyranosyl) ester]] | 109 |  |
| C=C1C[C@@]23CC[C@H]4[C@@](C)(CCC[C@@]4(C)C(=O)OC4OC(CO)C(O)C(OC5OC(CO)C(O)C(O)C5O)C4OC4OC(CO)C(O)C(O)C4O)[C@@H]2CC[C@]1(OC1OC(CO)C(O)C(O)C1O)C3 (some centres unmarked) [Reb WB1] | 133 |  |
| C=C1C[C@@]23CC[C@H]4[C@@](C)(CCC[C@@]4(C)C(=O)OC4OC(CO)C(O)C(OC5OC(CO)C(O)C(O)C5O)C4OC4OC(CO)C(O)C(O)C4O)[C@@H]2CC[C@]1(O)C3 (some centres unmarked) [Reb WB2] | 79 |  |
| C=C1C[C@@]23CC[C@H]4[C@@](C)(CCC[C@@]4(C)C(=O)O[C@@H]4O[C@H](CO)[C@@H](O)[C@H](O)[C@H]4O)[C@@H]2CC[C@]1(O[C@@H]1O[C@H](CO)[C@@H](O)[C@H](O)[C@H]1O[C@@H]1O[C@H](CO)[C@@H](O)[C@H](O)[C@H]1O)C3 [stevioside] |  | sweetness relative to sucrose (times sweeter than sucrose) [2]: 100-150 times |
| CP1: circular permutation of UGT76G1 enzyme (SEQ ID NO: 3) (protein, CP1 amino acid sequence) MNWQILKEILGKMIKQTKASSGVIWNSFKELEESELETVIREIPAPSFLIPLPKHLTASSSSLLDHDRTVFQWLDQQPPSSVLYVSFGSTSEVDEKDFLEIARGLVDSKQSFLWVVRPGFVKGSTWVEPLPDGFLGERGRIVKWVPQQEVLAHGAIGAFWTHSGWNSTLESVCEGVPMIFSDFGLDQPLNARYMSDVLKVGVYLENGWERGEIANAIRRVMVDEEGEYIRQNARVLKQKADVSLMKGGSSYESLESLVSYISSLENKTETTVRRRRRIILFPVPFQGHINPILQLANVLYSKGFSITIFHTNFNKPKTSNYPHFTFRFILDNDPQDERISNLPTHGPLAGMRIPIINEHGADELRRELELLMLASEEDEEVSCLITDALWYFAQSVADSLNLRRLVLMTSSLFNFHAHVSLPQFDELGYLDPDDKTRLEEQASGFPMLKVKDIKSAYS |  | enzymatic activity, transfer of one glucose to Reb D4 to form Reb M [3]: significantly higher enzymatic activity than UGT76G1 |
